Data set [1] concerns Arabidopsis ecotype Columbia (Col-0). The data set is described as follows: Arabidopsis root growth inhibition assay. The note with it: 6 days. Here is the method: Phytotoxicity of other major dicamba decarboxylated products was evaluated using Arabidopsis root growth inhibition assay. 4-chloro-3-methoxy phenol was purchased from Biogene Organics, Inc. (catalog number U06-642-79). 2,5-dichloro phenol was purchased from Sigma-Aldrich (catalog number D70007). Briefly, seeds of Arabidopsis ecotype Columbia (Col-0) were surface sterilized with 70% (v/v) ethanol for 5 minutes and 10% (v/v) bleach for 15 minutes. After being washed three times with distilled water, the seeds were germinated on 1× Murashige and Skoog (MS) medium with a pH of 5.7, 3% (w/v) sucrose, and 0.8% (w/v) agar. After incubation for 3.5 days, the seedlings were transferred to 1× MS medium containing B5 vitamin, 3% (w/v) sucrose, 1.2% (w/v) agar, and filter sterilized compounds was added to the media at 60° C. The concentrations of compounds including dicamba were 0 μM, 1.0 μM, and 10 μM. The seedlings were placed vertically, and the temperature maintained at 23° C. to allow root growth along the surface of the agar, with a photoperiod of 16 h of light and 8 h of dark.
After 6 days on media, root growth was evaluated. In wild type Arabidopsis, root growth inhibition is expected from auxin herbicide treatment.

The subject of another data set is Soybean seeds. The data set is described as follows: Soybean germination test on media with dicamba or decarboxylation product. Format: in vivo. The conditions noted are these: FIG. 2, concentration not stated.

Molecules are shown by their SMILES. Entries after “also recorded” stand apart in the source; their conditions may differ.

As for `Oc1cc(Cl)ccc1Cl` [2,5-dichloro phenol], the Arabidopsis root growth entry in data set [1] (1 uM in medium) and in data set [1] (10 uM in medium) was “not affected; also recorded: did not have any effect” in each case. `COc1cc(Cl)ccc1Cl` [2,5-DCA, 2,5-dichloro anisole]: the soybean germination entry in the data set with Soybean seeds is “not affected”.

For the origin of these results see patent publication US20160053277A1, “Compositions Having Dicamba Decarboxylase Activity and Methods of Use” (PIONEER HI-BRED INTERNATIONAL, INC., priority 2013, published 2016).
